Laboratory results as given in patent US10618937B2, “Method of treating Alzheimer's disease” (INDUSTRY-ACADEMIC COOPERATION FOUNDATION GYEONGSANG …, priority 2016, dated 2020).

Assays:
APP/PS1 model mice [1] = assay: Morris water maze test in APP/PS1 model mice; assay type: in vivo; settings: APP/PS1 model mice treated, compared to APP/PS1 model mice
Experimental: (§1) Male C57BL/6J wild type mice and double transgenic B6.Cg-Tg (APPswe, PSENdE9) 85Dbo Mmjax (APP/PS1) AD-model mice were obtained from Jackson Laboratories (Bar Harbor, Me., USA). The brains of the double transfected mice express Swedish mutation-containing chimeric mouse-human amyloid precursor protein (Mo/HuAPP695swe) and mutant human presenilin 1 protein (PS1-dE9). The mice were fed with an unlimited supply of food and water at an animal breeding ground of a university at a temperature of 23° C., at the relative humidity of 60±10% and in the black and light cycle of 12 h/12 h. […]
The Morris Underwater Maze Test System was constructed as a circular water tank with a diameter of 100 cm and a height of 40 cm containing 15.5 cm depth of water (temperature of 23±1° C.) which was opaque with white ink added. […] The delay time for escaping from the water maze (the time to find the hidden escape platform) was calculated for each trial. […] For the probe experiment, the platform was removed, each mouse was allowed to freely swim for 60 seconds, the amount of time the mouse spent in the target quadrant was measured, and the number of platform positions the mouse passed by (where the platform was located during the hidden platform training). […] All data were recorded by using video-tracking software (SMART, Panlab Harward Apparatus, Bioscience Company, Holliston, Mass., USA).

APP/PS1 model mice [2] = assay: Y-maze test; assay type: in vivo; settings: 45 days after IP administration
Experimental: as §1, with “h. When the mice reached 10 months of age, they were transferred to the injection and behavior observation room for 1 week for purification. The maintenance and treatment for mice were performed according to the guidelines of the Animal Ethics Committee (IACUC) issued by Department of Biology, Division of Applied Life Science of Gyeongsang National University in Korea. Experiments according to the present disclosure were conducted according to the guidelines approved by the guidelines of the Animal Ethics Committee (IACUC) issued by Department of Biology, Division of Applied Life Science of Gyeongsang National University in Korea (approval ID: 125).” for “h.”
Alteration behavior ratio (%) was calculated as [set of overlapping triplets (consecutive entry into 3 different arms)/total entry−2]×100. […]

RGPCG (adiponectin receptor-activating peptide) [5AA1]
time for staying where the platform was located (probe test) (APP/PS1 model mice [1]): increased
spontaneous alteration (APP/PS1 model mice [2]): restored
